Source: US20070213291A1, “Therapeutically useful synthetic oligonucleotides” (priority 1999, published 2007)

How the values were obtained:
Format in all cases: cell-based
[1] = test system: Jurkat human leukemia T cells; experiment: Cell cycle stage in Jurkat cells (propidium iodide flow cytometry); conditions: Jurkat, 24 h, 100 μg/ml
Experimental: Cell cycle stage was determined using a […]™ PLUS DNA commercial kit (Becton Dickinson). Briefly, nuclei from cells were obtained by dissolving the cell membrane in a nonionic detergent, eliminating the cell cytoskeleton and nuclear proteins with trypsin, digesting the cellular RNA with RNase and stabilizing the nuclear chromatin with spermine. Propidium iodide was added to the cell nuclei and their fluorescence was analyzed in a flow cytometer equipped with electronic doublet discrimination capability (FACSCalibur, Becton Dickinson, San Jose, Calif.). Accumulation of cells in G0/G1, early S (SE), mid S (SM), late S (SL) or G2/M phases of the cell cycle was analyzed using MODFIT LT software (Verity Software House Inc., Topsham, Mass.).
Exponentially growing Jurkat human leukemia T cells (Table 28) and MCF-7 human breast cancer cells (5×10^5 cells/ml) (Table 29) were incubated for 24 h with 2, 6, 15, 18, 27 and 45 base sequences containing A, C, G and T. The cells were collected and centrifuged and cell cycle stage was determined.
Jurkat human cell leukemia T cells (1×10^6 cells/ml) were incubated for 24 h with 6 base GT SEQ ID NO:25, conplementary 6 base AC SEQ ID NO:79 and 6 base GT SEQ ID NO:25+6 base AC SEQ ID NO:79. GT SEQ ID NO:25 and AC SEQ ID NO:79 were hybridized by mixing the oligonucleotides (1:1) and heating for 10 minutes at 65° C. As controls, GT SEQ ID NO:25 and AC SEQ ID NO:79 were heated for 10 minutes at 65° C. (Table 30).

[2] = test system: Jurkat human leukemia T cells; experiment: Inhibition of Jurkat human leukemia T cell proliferation (MTT reduction); conditions: for % INHIBITION of Jurkat human leukemia T cell proliferation: 100 μg/ml sequence, 48 h, 2.5×10^5 cells/ml; for % INHIBITION of Jurkat proliferation at suboptimal concentration: 5.0 μg/ml of each 6 base sequence, alone or two together
Experimental: Cells were seeded in 6 (1 ml/well), 24 (0.5 ml/well) or 96 (0.1 ml/well) well flat-bottom microplates and were maintained at 37° C. in a 5% CO2 atmosphere. Unless stated otherwise, 2.5×10^5 cells/ml were incubated with 0 μg/ml (control) and 100 μg/ml (treated) of 2 to 45 base sequences containing A, C, G and T for 48 h.
MTT was measured at a wavelength of 570 nm using a multiplate spectrophotometer reader (ELX800, Bio-TEK Instruments Inc., Winooski, Vt.).
Jurkat human leukemia T cells are an atypical multi-drug resistant human suspension tumor cell model.

[3] = test system: THP-1 human acute monocytic leukemia cells; experiment: Cytokine production by THP-1 cells (ELISA); conditions: THP-1, 1×10^6 cells, 100 μg/ml, 48 h; for ↑ IL-12 (fold increase treated vs control cells): p70 complex and free p40
Experimental: (§1) Unless stated otherwise, 1×10^6 cells were incubated with 100 μg/ml of each of the sequences tested for 48 h at 37° C. in 5% CO2. Production of cytokines IL-6, IL-10, IL-12, IL-1beta and TNF-alpha was determined in pg/ml in 100 μl of culture supernatant using the appropriate commercial ELISA (BioSource, Camarillo Calif.). The IL-12 ELISA measures both IL-12 p70 complex and free p40 subunit. Results are expressed as the “fold” (×) increase in cytokine production by treated cells compared to control cells.
THP-1 human acute monocytic leukemia cells were incubated with 2, 3, 6, 9, 12, 14, 15 and 18 base GT sequences and production of the cyotkine IL-6 was determined (Table 35).
THP-1 human acute monocytic leukemia cells were incubated with 6 base GT, AG, CG, GG, AGT and CGT sequences and production of the cytokines IL-12 and IL-6 was determined (Table 36).
THP-1 human acute monocytic leukemia cells were incubated with 6 base GT sequences, having either an oxygen (phosphodiester) or a sulfur (phosphorothioate) as the nonbridging atom on the phosphate groups and production of the cytokine IL-12 was determined (Table 39).
THP-1 human acute monocytic leukemia cells were incubated with 6 base GT SEQ ID NO:25, having either an oxygen (phosphodiester) or a sulfur (phosphorothioate) as the nonbridging atom on the phosphate groups and production of the cytokine IL-12 was determined (Table 40).

rhesus monkey PBMCs = experiment: Cytokine production by rhesus monkey PBMC (ELISA); conditions: PBMC of 4 healthy rhesus monkeys, 100 μg/ml, 48 h
Experimental: as §1
PBMCs were isolated from 4 healthy rhesus monkeys as in Example 35. PBMCs were incubated with 6 base GT, AGT, CGT, AG, CG ands GG sequences and production of the cytokines IL-6, IL-12 and TNF-alpha was determined (Table 42).

chimpanzee PBMCs = experiment: Cytokine production by chimpanzee PBMC (ELISA); conditions: PBMC of 4 healthy chimpanzees, 100 μg/ml, 48 h
Experimental: as §1
PBMCs were isolated from 4 healthy chimpanzees as in Example 35. Chimpanzee PBMCs were incubated with 6 base GT, AGT, CGT, AG, CG and GG sequences and production of the cytokines IL-10, IL-12 and TNF-alpha was determined (Table 41).

[4] = test system: human peripheral blood mononuclear cells; experiment: Cytokine production by human PBMC (ELISA); conditions: PBMC of 7 healthy humans, 100 μg/ml, 48 h
Experimental: as §1
Peripheral blood mononuclear cells (hereinafter, “PBMCs”) were isolated from 7 healthy humans by Ficoll-Hypaque (Amersham Pharmacia Biotech, Baie d'Urfée, Québec, Canada) by density gradient centrifugation of whole blood. PBMCs were incubated with 6 base GT, AGT, CGT, AG, CG and GG sequences and production of the cytokines IL-1beta, IL-6, IL-10 and IL-12 were determined.

Row | Sequence | % of cells in phase: G0/G1 [1] | % of cells in phase: G2/M [1] | % of cells in phase: SE [1] | % of cells in phase: SL [1] | % of cells in phase: SM [1] | Arrest (cell cycle) [1] | % INHIBITION of Jurkat human leukemia T cell proliferation [2] | ↑ IL-6 (fold increase treated vs control cells) [3] | ↑ IL-12 (fold increase treated vs control cells) [3] | IL-10 fold increase: mean +/− SD (rhesus monkey PBMCs) | IL-12 fold increase: mean +/− SD (rhesus monkey PBMCs) | TNF-alpha fold increase: mean +/− SD (rhesus monkey PBMCs) | IL-10 fold increase: mean +/− SD (chimpanzee PBMCs) | IL-12 fold increase: mean +/− SD (chimpanzee PBMCs) | TNF-alpha fold increase: mean +/− SD (chimpanzee PBMCs) | IL-1 beta fold increase: mean +/− SD [4] | IL-6 fold increase: mean +/− SD [4] | IL-10 fold increase: mean +/− SD [4] | IL-12 fold increase: mean +/− SD [4] | % INHIBITION of Jurkat proliferation at suboptimal concentration [2]
1 | AGGTGA [SEQ ID NO:31] | 35.2% | 17.1% | 29.1% | 8.2% | 10.4% | Mid SE | 10% | 4.9x | 1.9x | – | – | – | – | – | – | – | – | – | – | –
2 | ATGTAT (unmodified DNA) [SEQ ID NO:30] | – | – | – | – | – | – | 16% | 9.8x | 4.8x | 1.9 +/− 1.4 fold increase | 6.0 +/− 1.9 fold increase | 6.9 +/− 4.7 fold increase | 1.4 +/− 0.4 fold increase | 10.7 +/− 7.0 fold increase | 5.9 +/− 3.3 fold increase | 1.1 +/− 0.2 fold increase | 4.6 +/− 4.4 fold increase | 1.0 +/− 0.1 fold increase | 1.3 +/− 0.2 fold increase | –
3 | CTGTCT [SEQ ID NO:36] | – | – | – | – | – | – | 19% | 15.9x | 2.0x | 1.0 +/− 0.1 fold increase | 10.7 +/− 4.6 fold increase | 15.3 +/− 3.6 fold increase | 3.0 +/− 2.1 fold increase | 13.4 +/− 8.9 fold increase | 12.4 +/− 6.3 fold increase | 1.2 +/− 0.3 fold increase | 5.3 +/− 3.6 fold increase | 1.0 +/− 0.1 fold increase | 1.2 +/− 0.3 fold increase | –
4 | GGTTGG [SEQ ID NO:41] | – | – | – | – | – | – | 43% | 16.0x | 3.3x | 1.9 +/− 1.5 fold increase | 11.5 +/− 5.9 fold increase | 14.1 +/− 8.2 fold increase | 9.1 +/− 7.7 fold increase | 15.3 +/− 10.0 fold increase | 14.1 +/− 7.3 fold increase | 3.2 +/− 3.0 fold increase | 7.8 +/− 12.8 fold increase | 1.0 +/− 0.1 fold increase | 4.9 +/− 8.6 fold increase | 4%
5 | GTGTGTGTGTGT [SEQ ID NO:14] | – | – | – | – | – | – | 51% | 1.3x | – | – | – | – | – | – | – | 1.1 +/− 0.2 fold increase | 2.0 +/− 1.5 fold increase | 1.0 +/− 0.1 fold increase | 2.0 +/− 1.1 fold increase | –
6 | TCGTTC [SEQ ID NO:37] | – | – | – | – | – | – | 20% | 12.9x | 2.2x | 1.1 +/− 0.2 fold increase | 10.0 +/− 3.8 fold increase | 14.7 +/− 3.1 fold increase | 3.4 +/− 2.6 fold increase | 14.1 +/− 10.0 fold increase | 11.4 +/− 6.4 fold increase | 1.2 +/− 0.4 fold increase | 7.5 +/− 9.8 fold increase | 1.0 +/− 0.1 fold increase | 1.4 +/− 1.1 fold increase | –
7 | TGGTTG [SEQ ID NO:29] | – | – | – | – | – | – | 42% | 10.5x | 4.1x | 1.1 +/− 0.2 fold increase | 11.1 +/− 4.2 fold increase | 16.5 +/− 2.7 fold increase | 3.1 +/− 2.0 fold increase | 13.6 +/− 8.8 fold increase | 12.4 +/− 7.3 fold increase | 1.7 +/− 1.0 fold increase | 9.3 +/− 12.1 fold increase | 1.0 +/− 0.1 fold increase | 3.3 +/− 4.2 fold increase | −1%
8 | TGTGTGTGTGTG [SEQ ID NO:13] | – | – | – | – | – | – | 49% | 5.7x | – | – | – | – | – | – | – | 2.4 +/− 1.9 fold increase | 12.1 +/− 6.5 fold increase | 1.2 +/− 0.4 fold increase | 4.4 +/− 5.3 fold increase | –
